Assay results taken from patent US10299467B2, “Animal model for type 2 diabetes and obesity” (Universitaetsklinikum Freiburg, priority 2012, dated 2019).

Legend:
Format in all cases: in vivo, mouse
[1] = test system: WAT of mice; assay: β3-adrenergic agonist treatment of Ctrl and LSD1+/− mice, qRT-PCR transcript levels in WAT
Method: All mice were housed in the pathogen-free barrier facility of the University Medical Center Freiburg in accordance with institutional guidelines and approved by the regional board. Mice were maintained in a temperature- and humidity-controlled animal facility with a 12-hour light/dark cycle, free access to water, and a standard rodent chow (Kliba, breeding, 3807). The high-fat diet (HFD) study was carried out with a chow containing 4.056 kcal/kg (fat: 1.600 kcal/kg and sucrose: 1.600 kcal/kg; Research Diets). HFD was given to mice at 5 weeks of age. Mice were analysed at 25 weeks of age. For cold exposure experiments, mice were maintained at 10° C. with a 12 hour light/dark cycle, free access to water, and a standard rodent chow. Animals were killed by cervical dislocation, tissues were immediately collected, weighted, frozen in liquid nitrogen or processed for further analyses. Nomenclature for dissected adipose depots was used according to Seale et al.^17. Epididymidal WAT (epWAT): prominent bilateral intra-abdominal visceral depots in male mice attached to the epididymis. Inguinal WAT (ingWAT): bilateral superficial inguinal depots between the skin and muscle fascia just anterior to the lower segment of the hind limbs. Perimuscular WAT (pmWAT): depots located on the upper part of the quadriceps muscle. Retroperitoneal WAT (rpWAT): bilateral depots in abdominal cavity behind the peritoneum on the dorsal side of the kidney. Interscapular BAT (BAT): most prominent depot of brown adipocytes in rodents, found between the scapulae. In vivo experiments including food consumption, serum analysis, glucose tolerance and insulin sensitivity tests, temperature measurements, body lean and fat contents, and energy expenditure were described^48. CL316,243 (Sigma-Aldrich) was injected intraperitoneally at 1 mg/kg.
RNA was isolated with TRIzol Reagent (Invitrogen). […] Quantitative RT-PCR was performed using the Abgene SYBR Green PCR kit (Invitrogen) according to the supplier's protocol. Data were analysed using the standard curve method^53. […]

[2] = test system: LSD1; assay: β3-adrenergic agonist treatment of mice, Western blot of LSD1 in WAT; details: wild-type mice, CL316,243 injected intraperitoneally at 1 mg/kg vs vehicle
Method: (§1) All mice were housed in the pathogen-free barrier facility of the University Medical Center Freiburg in accordance with institutional guidelines and approved by the regional board. Mice were maintained in a temperature- and humidity-controlled animal facility with a 12-hour light/dark cycle, free access to water, and a standard rodent chow (Kliba, breeding, 3807). The high-fat diet (HFD) study was carried out with a chow containing 4.056 kcal/kg (fat: 1.600 kcal/kg and sucrose: 1.600 kcal/kg; Research Diets). HFD was given to mice at 5 weeks of age. Mice were analysed at 25 weeks of age. For cold exposure experiments, mice were maintained at 10° C. with a 12 hour light/dark cycle, free access to water, and a standard rodent chow. Animals were killed by cervical dislocation, tissues were immediately collected, weighted, frozen in liquid nitrogen or processed for further analyses. Nomenclature for dissected adipose depots was used according to Seale et al.^17. […]
Homogenates were separated in 10% polyacrylamide gels and blotted to Hybond nitrocellulose membranes (GE Healthcare). […] Secondary antibodies conjugated to horseradish peroxidase (GE Healthcare) were detected using an enhanced chemiluminescence detection system (GE Healthcare). Protein levels were quantified using the Chemi Capt software (Peqlab).

[3] = test system: WAT of mice; assay: β3-adrenergic agonist treatment of mice, H&E staining of white adipose tissue (beige fat islets)
Method: as §1, with “al.^17. Epididymidal WAT (epWAT): prominent bilateral intra-abdominal visceral depots in male mice attached to the epididymis. Inguinal WAT (ingWAT): bilateral superficial inguinal depots between the skin and muscle fascia just anterior to the lower segment of the hind limbs. Perimuscular WAT (pmWAT): depots located on the upper part of the quadriceps muscle.” for “al.^17.”

C[C@H](Cc1ccc2c(c1)OC(C(=O)[O-])(C(=O)[O-])O2)NC[C@H](O)c1cccc(Cl)c1.[Na+].[Na+] [CL316,243]
expression of white fat-selective and adipogenic markers ([1]; Ctrl and LSD1+/− mice, vs vehicle): not significantly affected
adrenergic induction of Cidea, Prdm16, Pgc-1α, Ucp1 and beige fat-selective markers in WAT ([1]; LSD1+/− mice): impaired
expression of Cidea, Prdm16, Pgc-1α, and Ucp1 and of beige fat-selective markers in WAT ([1]; control mice, vs vehicle): significantly increases
LSD1 protein levels in WAT [2]: increased
clusters of beige fat cells in WAT ([3]; LSD1+/− mice compared to control mice, both treated with CL316,243): fewer clusters of beige fat cells
beige adipocyte formation in WAT ([3]; wild-type mice, CL316,243 injected intraperitoneally at 1 mg/kg vs vehicle): appearance of multilocular beige adipocytes
